Molecular target: Nan[KS1][AT1] (Streptomyces nanchangensis, UniProt Q7WTF5)
Assay: coupled KS-KR assay, chiral GC-MS of diketide methyl ester
Assay type: biochemical
Conditions: holo-NanACP1, NADPH, KR domain, pH 7.2

Sequence of Nan[KS1][AT1] (Q7WTF5 1029-1965): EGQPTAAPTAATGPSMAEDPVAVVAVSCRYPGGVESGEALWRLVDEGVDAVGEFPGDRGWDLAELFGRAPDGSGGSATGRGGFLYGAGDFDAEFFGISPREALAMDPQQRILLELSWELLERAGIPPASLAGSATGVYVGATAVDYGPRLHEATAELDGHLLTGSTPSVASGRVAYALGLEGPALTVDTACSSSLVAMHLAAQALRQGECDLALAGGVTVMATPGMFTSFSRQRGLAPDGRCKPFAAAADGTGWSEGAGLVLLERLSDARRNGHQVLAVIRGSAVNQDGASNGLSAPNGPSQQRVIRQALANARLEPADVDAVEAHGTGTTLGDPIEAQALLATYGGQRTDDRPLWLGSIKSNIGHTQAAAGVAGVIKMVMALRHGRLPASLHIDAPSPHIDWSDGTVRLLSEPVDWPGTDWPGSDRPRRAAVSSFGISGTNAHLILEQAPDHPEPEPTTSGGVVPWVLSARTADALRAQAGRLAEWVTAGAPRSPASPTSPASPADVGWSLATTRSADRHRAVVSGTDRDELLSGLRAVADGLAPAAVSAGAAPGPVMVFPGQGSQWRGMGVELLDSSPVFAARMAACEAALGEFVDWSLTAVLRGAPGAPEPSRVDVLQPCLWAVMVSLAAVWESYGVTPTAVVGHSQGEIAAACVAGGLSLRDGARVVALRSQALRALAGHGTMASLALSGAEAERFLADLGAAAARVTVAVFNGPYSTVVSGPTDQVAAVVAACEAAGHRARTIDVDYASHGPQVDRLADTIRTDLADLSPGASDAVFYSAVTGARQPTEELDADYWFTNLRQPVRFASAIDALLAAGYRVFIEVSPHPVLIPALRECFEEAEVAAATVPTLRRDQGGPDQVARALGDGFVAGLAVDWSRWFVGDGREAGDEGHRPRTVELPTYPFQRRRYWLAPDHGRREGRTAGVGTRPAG

CC(C(=O)O)C(=O)SCCNC(=O)CCNC(=O)[C@H](O)C(C)(C)COP(=O)(O)OP(=O)(O)OC[C@H]1O[C@@H](n2cnc3c(N)ncnc32)[C@H](O)[C@@H]1OP(=O)(O)O (some centres unmarked) [methylmalonyl-CoA]
coupled KS-KR assay, chiral GC-MS of diketide methyl ester (300 uM methylmalonyl-CoA, propionyl-SNAC, extender): condensation between propionyl-SNAC and methylmalonyl-CoA catalyzed by the polyether synthase didomain Nan[KS1][AT1]

CCC(=O)SCCNC(C)=O [propionyl-SNAC]
coupled KS-KR assay, chiral GC-MS of diketide methyl ester (5 mM propionyl-SNAC, methylmalonyl-CoA, primer): condensation between propionyl-SNAC and methylmalonyl-CoA catalyzed by the polyether synthase didomain Nan[KS1][AT1]

Reference: publication PMC5332327 (Journal of the American Chemical Society, 2017)
